Reference: ChEMBL document CHEMBL4219105, “Novel polyamine-based Histone deacetylases-Lysine demethylase 1 dual binding inhibitors” (Bioorg Med Chem Lett, 2018)

Experiments:
MCF7 [1] = experiment: Cytotoxic activity against human MCF7 cells assessed as reduction in cell viability at 4 uM after 24 hrs by MTT assay relative to control; type: functional
MCF7 [2] = experiment: Cytotoxic activity against human MCF7 cells assessed as reduction in cell viability at 70 uM after 24 hrs by MTT assay relative to control; type: functional
MCF7 [3] = experiment: Cytotoxic activity against human MCF7 cells assessed as reduction in cell viability at 16 uM after 24 hrs by MTT assay relative to control; type: functional
[4] = molecular target: T1, Lysine-specific histone demethylase 1A/REST corepressor (Homo sapiens, UniProt O60341+Q9P2K3)
Description: (§1) Inhibition of human recombinant LSD1/CoREST3 expressed in Escherichia coli using monomethylatedH3meK4 peptide as substrate preincubated for 15 mins followed by substrate addition measured after 12 mins by fluorescence based assay

HDAC1/REST corepressor 3 [5] = molecular target: T2, HDAC1/REST corepressor 3 (Homo sapiens, UniProt Q13547+Q9P2K3)
T2 sequence (Q13547 whole entry, other chains not shown): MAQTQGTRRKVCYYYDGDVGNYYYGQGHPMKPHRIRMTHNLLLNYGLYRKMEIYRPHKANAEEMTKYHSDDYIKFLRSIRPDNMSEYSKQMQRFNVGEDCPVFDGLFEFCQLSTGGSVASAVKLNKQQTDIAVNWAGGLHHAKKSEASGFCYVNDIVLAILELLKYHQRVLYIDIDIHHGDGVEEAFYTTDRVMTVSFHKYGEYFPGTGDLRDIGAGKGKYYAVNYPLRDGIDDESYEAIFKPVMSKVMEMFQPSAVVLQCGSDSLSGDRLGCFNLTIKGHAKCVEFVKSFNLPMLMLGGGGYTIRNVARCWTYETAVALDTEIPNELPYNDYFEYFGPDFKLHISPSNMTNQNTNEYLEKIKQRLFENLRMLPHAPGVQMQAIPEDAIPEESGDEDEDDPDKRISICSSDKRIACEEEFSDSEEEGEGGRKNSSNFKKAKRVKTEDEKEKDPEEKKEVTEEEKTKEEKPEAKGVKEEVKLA
Description: (§2) Inhibition of HDAC1/CoREST3 in HEK293 whole cell extract using fluorescent acetylated histone peptide as substrate after 60 mins by fluorescence based assay

MCF7 [6] = experiment: Cytotoxic activity against human MCF7 cells assessed as reduction in cell viability at 35 uM after 24 hrs by MTT assay relative to control; type: functional
[7] = molecular target: T3, Histone deacetylase (Homo sapiens) (UniProt Q13547+O15379+Q9UBN7+Q92769+Q9UQL6+Q8WUI4+Q9BY41+Q96DB2+P56524+Q9UKV0+Q969S8); experiment: Inhibition of HDAC in human MCF7 cell nuclear extract using acetylated lysine as substrate at 17 uM after 1 hr by colorimetric analysis relative to control; type: protein assay
HDAC1/REST corepressor 3 [8] = molecular target: T2, HDAC1/REST corepressor 3; remark: listed apart in the source
Description: as §2

[9] = molecular target: T1, Lysine-specific histone demethylase 1A/REST corepressor; remark: listed apart in the source
Description: as §1

MCF7 [10] = experiment: cells; type: functional, cell-based; conditions: Homo sapiens, MCF7, 24 h
Description: Cytotoxic activity against human MCF7 cells after 24 hrs by MTT assay

[11] = molecular target: T3, Histone deacetylase (Homo sapiens); experiment: Inhibition of HDAC in human MCF7 cell nuclear extract using acetylated lysine as substrate at 70 uM after 1 hr by colorimetric analysis relative to control; type: protein assay

| IC50 [4] | Ki (HDAC1/REST corepressor 3 [5]) | inhibition [7] [%] | Ki (HDAC1/REST corepressor 3 [8]) [µM] | IC50 [9] [µM] | IC50 (MCF7 [10]) [µM] | inhibition [11] [%] | Compound | Activity (MCF7 [1]) [%] | Activity (MCF7 [2]) [%] | Activity (MCF7 [3]) [%] | Activity (MCF7 [6]) [%] |
| --- | --- | --- | --- | --- | --- | --- | --- | --- | --- | --- | --- |
|  |  |  |  |  |  |  | O=C(CCCCCCC(=O)Nc1ccccc1)NO [VORINOSTAT] | 20.8 | 56.6 | 49.3 |  |
| Nd(Insoluble) | Nd(Insoluble) |  |  |  |  |  | Cl.Cl.Cl.N[C@@H]1C[C@H]1c1ccc(NC(=O)CCC(=O)NCCCCCCNCCCCCCCCNCCCCCCNC(=O)c2ccc(NC(=O)CCCCCCC(=O)NO)cc2)cc1 |  |  |  |  |
|  |  | 50.2 | 0.0425 | 3.85 | 39.6 |  | Cl.Cl.Cl.N[C@@H]1C[C@H]1c1ccc(NC(=O)CCC(=O)NCCCNCCCCNCCCNC(=O)c2ccc(NC(=O)CCCCCCC(=O)NO)cc2)cc1 | 16.3 | 68.6 |  | 52.7 |
|  |  |  | 0.0269 | 2.4 | 60.2 | 35.8 | Cl.Cl.N[C@@H]1C[C@H]1c1ccc(NC(=O)CCC(=O)NCCCNCCCNC(=O)c2ccc(NC(=O)CCCCCCC(=O)NO)cc2)cc1 |  | 52 |  |  |
